# Results from patent US5817840A, “Water soluble taxol derivatives” (The Scripps Research Institute, priority 1997, dated 1998).
# Entries after “also recorded” stand apart in the source; their conditions may differ.
# Columns and labels:
# [1] = system: NHDF (normal human skin); experiment: Cytotoxicity (sulphorhodamine B), normal cell line, Table 1B; type: cell-based; conditions: 72 h
# Procedure: (§3) The cytotoxicities were determined using the sulphorhodamine B assay method (Skehan, P. et al. J. Nat. Canc. Inst. 82, 1107 (1990)).
# [2] = system: RPMI-7666 (normal human PBLs); experiment: as above; type: cell-based; conditions: 72 h
# Procedure: as §3
# [3] = system: CHO (Chinese hamster ovary); experiment: as above; type: cell-based; conditions: Cricetulus griseus, 72 h
# Procedure: as §3
# [4] = system: H322 (lung carcinoma); experiment: Cytotoxicity (sulphorhodamine B), cancer cell line, Table 1B; type: cell-based; conditions: NCI-H322, 72 h
# Procedure: as §3
# [5] = system: MCF-7 (breast carcinoma); experiment: as above; type: cell-based; conditions: Homo sapiens, MCF7, 72 h
# Procedure: as §3
# [6] = system: BT-549 (breast carcinoma); experiment: as above; type: cell-based; conditions: Homo sapiens, BT-549, 72 h
# Procedure: as §3
# [7] = system: OVCAR-3 (ovarian carcinoma); experiment: as above; type: cell-based; conditions: Homo sapiens, OVCAR-3, 72 h
# Procedure: as §3
# [8] = system: HT-29 (colon carcinoma); experiment: as above; type: cell-based; conditions: Homo sapiens, HT-29, 72 h
# Procedure: as §3
# [9] = system: SIHA (cervix carcinoma); experiment: as above; type: cell-based; conditions: Homo sapiens, SiHa, 72 h
# Procedure: as §3
# [10] = system: 786-0 (renal cell carcinoma); experiment: as above; type: cell-based; conditions: Homo sapiens, 786-0, 72 h
# Procedure: as §3
# [11] = system: HL-60 (promyel carcinoma); experiment: as above; type: cell-based; conditions: Homo sapiens, HL-60, 72 h
# Procedure: as §3
# [12] = system: MOLT-4 (T-cell leukaemia); experiment: as above; type: cell-based; conditions: Homo sapiens, MOLT-4, 72 h
# Procedure: as §3
# [13] = system: L1210 (mouse leukaemia); experiment: as above; type: cell-based; conditions: L1210, 72 h
# Procedure: as §3
# [14] = system: UCLA-P-3 (lung carcinoma); experiment: as above; type: cell-based; conditions: Homo sapiens, UCLA P-3, 72 h
# Procedure: as §3
# [15] = system: BT-549 (human breast ductal carcinoma); experiment: Cytotoxicity, Example 8; type: cell-based; conditions: BT-549, 72 h
# Procedure: (§1) Tumor or normal cells were cultured in 96-well plates with the test compound in 200 μl of RPMI supplemented with 10% fetal bovine serum (Hyclone, Salt Lake City, Utah) at 37° C. in a humidified atmosphere containing 5% CO2 in air for 72 hours. Sulforhodamine B dissolved in 1% acetic acid was added, and the plates were incubated for 30 minutes at ambient temperature, washed with 1% acetic acid, and blotted. To the air-dried plates were added 100 μl of […] unbuffered TRIS base (pH 10.5) with shaking. The optical densities of the plates were measured with a microplate reader (Molecular Devices Thermomax) at 540 nm. The concentration of compound required to reduce the absorbance to 50% of control samples was recorded as IC50.
# (§2) NHDF: Normal human dermal fibroblast (available from Clouelics Corp., San Diego, Calif.); HLF-1: Normal human diploid lung; W1-38; Normal human diploid lung; CHO; Chinese hamster ovary; SK-MEL-28: Melanoma; CAPAN-1: Pancreatic carcinoma; H322: lung carcinoma; MCF-7; Breast carcinoma; BT-549; Human breast ductal carcinoma; OVCAR-3: Human ovarian carcinoma; HT-29: Human adenocarcinoma, colon; SIHA: Human squamous carcinoma crvx; 786-0: Human perirenal cell adenocarci; PC-3: Human prostate adenocarcinoma; HL-60: Human promyelomic leukemia; MOLT-4: Human T-cell leukemia. All cell lines except NHDF are available from the American Tissue Culture Collection, Rockville, Md.
# [16] = system: HT-29 (human adenocarcinoma, colon); experiment: Cytotoxicity, Example 8; type: cell-based; conditions: HT-29, 72 h
# Procedure: as §1, §2
# [17] = system: NHDF (normal human dermal fibroblast); experiment: Cytotoxicity, Example 8; type: cell-based; conditions: 72 h
# Procedure: as §1, §2
# [18] = system: PC-3 (human prostate adenocarcinoma); experiment: Cytotoxicity, Example 8; type: cell-based; conditions: 72 h
# Procedure: as §1, §2
# [19] = Water solubility in D2O by 1H NMR; conditions: compared to taxol
# Procedure: The solubilities of the synthesized protaxols in D2 O were determined by 1H NMR spectroscopy.
# The resulting mixture was centrifuged for 20 minutes and the supernatant saturated solution was analysed by ^1 H NMR spectroscopy using a Bruker AMX-400 instrument and methanol or pyridine as internal standard. The concentration of the compound was determined by comparing several signals with the CH3 signal of methanol or the NCH signal of pyridine.
# [20] = Taxol release in human blood plasma at 37° C.; type: in vitro ADME
# Procedure: Protaxol 5 and N-cyclohexylbenzamide (as internal standard) were dissolved in acetonitrile and immediatley added to human plasma or phosphate buffer at pH 7.4. Samples-of protaxol 5 were incubated in each medium for specified times and then extracted with ethyl acetate as described by S. M. Longnecker, et al., Cancer Treat. Rep. 71, 53 (1987). Solvent was removed and the residue dissolved in acetonitrile and analysed by HPLC as already described. The peak areas for compound 5 and taxol were normalized to that of the internal standard using a calibration curve.
# [21] = Stability in aqueous media, aprotic organic solvents and solid state; type: physicochemical; conditions: aqueous media / pH 7.0 buffer / 20° C.
# Description: The derivatives in which the C-7 hydroxyl group was acetylated were extremely unstable in aqueous media losing the C-7 substituent very rapidly. The stability of the synthesized compounds was examined at various pH's and temperatures. […] Table 1A includes the half-lives of six of these compounds at pH 7.5 and 9. […] This illustrates the ability to fine-tune the rate of release of taxol to a desired set of conditions using simple chemical principles.
# [22] = system: tubulin / microtubules; experiment: Tubulin polymerization-depolymerization (CaCl2-induced depolymerization of microtubules); type: biochemical; conditions: 10^-6 M, 1.0 mg/mL tubulin
# Procedure: Tubulin polymerization to microtubules is promoted by GTP, whereas CaCl2 causes depolymerization of microtubules back to tubulin (FIG. 3A). […] The designed protaxol 5 was tested for its ability to stabilize microtubules formed from tubulin via the action of GTP. […] These findings are in agreement with the previously reported loss of activity resulting from blocking the C-2' hydroxyl group.
# Tubulin polynerization-depolymerization experiments with taxol and designed protaxol 5 are illustrated in FIG. 3. CaCl2 -promoted depolymerization of microtubules was suppressed by taxol and protaxol 5 (after taxol release).
# These measurements may be conducted at 37° C. following a recently developed procedure described by R. Merlock and W. Wrasidlo (Analytical Biochemistry, 1993). In each case 1.0 mM GTP may be employed to promote initial polymerization of tubulin.
# D: Tubulin (1.0 mg/mL) with protaxol 5 (10^-6 M) after release of taxol (as determined by HPLC, essentially quantitative conversion).
smiles,measurement,setting,value
CC(=O)O[C@H]1C(=O)[C@@]2(C)[C@H]([C@H](OC(=O)c3ccccc3)[C@]3(O)C[C@H](OC(=O)[C@H](OC(=O)CS(=O)(=O)CC(=O)O)[C@@H](NC(=O)c4ccccc4)c4ccccc4)C(C)=C1C3(C)C)[C@]1(OC(C)=O)CO[C@@H]1C[C@@H]2O [Compound 5],IC50,[1],1 µM
same,IC50,[2],100 µM
same,IC50,[3],100 µM
same,IC50,[4],0.001 µM
same,IC50,[5],10 µM
same,IC50,[6],< 0.001 µM
same,IC50,[7],< 0.001 µM
same,IC50,[8],< 0.001 µM
same,IC50,[9],100 µM
same,IC50,[10],1 µM
same,IC50,[11],< 0.001 µM
same,IC50,[12],0.001 µM
same,IC50,[13],10 µM
same,IC50,[14],< 0.001 µM
same,IC50,[15],0.098 µM
same,IC50,[16],0.098 µM
same,IC50,[17],0.19 µM
same,IC50,[18],50 µM
same,Water solubility (in words),[19],good solubility
same,taxol release in human blood plasma (in words),[20]; compared to pH 7.4 buffer,accelerated release of taxol; also recorded: rapidly releasing taxol
same,half-life,[20]; human blood plasma,~1.67 h
same,stability in aqueous media,[21],good solubility and stability properties in aqueous media; also recorded: quite stable
same,prevention of CaCl2-induced depolymerization of microtubules,"[22]; CaCl2 0.25 mM after 16 minutes, 37° C., initial, no prior release",failed to prevent CaCl2-induced disassembly of microtubules; also recorded: caused depolymerization of microtubules
same,prevention of CaCl2-induced depolymerization of microtubules after taxol release,[22]; after prolonged exposure / release of taxol,reached potencies comparable to that of taxol; also recorded: suppressed
